With `CCCCOc1cc(CCS(=O)(=O)NC(=O)OCC(C)C)n(Cc2ccc(Cl)cc2Cl)n1` [Example 133, isobutyl ({2-[3-butoxy-1-(2,4-dichlorobenzyl)-1H-pyrazol-5-yl]ethyl}sulfonyl)carbamate], the melting point was 114 to 116 °C.

`COCCCS(=O)(=O)NC(=O)/C=C/c1cc(OC(C)C)nn1Cc1ccc(C(F)(F)F)cc1Cl` [Example 115, (2E)-3-{1-[2-chloro-4-(trifluoromethyl)benzyl]-3-isopropoxy-1H-pyrazol-5-yl}-N-[(3-methoxypropyl)sulfonyl]acrylamide] yielded a melting point of 138 to 139 °C.

For the molecule `COCCCS(=O)(=O)NC(=O)/C=C/c1cc(OCC2CC2)nn1Cc1ccc(C(F)(F)F)cc1Cl` [Example 119, (2E)-3-[1-[2-chloro-4-(trifluoromethyl)benzyl]-3-(cyclopropylmethoxy)-1H-pyrazol-5-yl]-N-[(3-methoxypropyl)sulfonyl]acrylamide], the melting point was in the range of 137 to 138 °C. With `COCCOc1ccc(/C=C(\C)C(=O)NS(=O)(=O)CC(F)(F)F)c(Oc2ncc(C(F)(F)F)cc2Cl)c1` [Example 244, (2E)-3-[2-{[3-chloro-5-(trifluoromethyl)pyridin-2-yl]oxy}-4-(2-methoxyethoxy)phenyl]-2-methyl-N-[(2,2,2-trifluoroethyl)sulfonyl]acrylamide] the figure was 159 to 159.5 °C.

Molecule `CC(C)Oc1cc(CCC(=O)NS(=O)(=O)c2ccc(C(F)(F)F)cc2)n(Cc2ccc(Cl)cc2Cl)n1` [Example 83, 3-[1-(2,4-dichlorobenzyl)-3-isopropoxy-1H-pyrazol-5-yl]-N-{[4-(trifluoromethyl)phenyl]sulfonyl}propanamide] yielded a melting point of 167 to 169 °C. With `CCCCCS(=O)(=O)NC(=O)/C(=C/c1ccc(OCCOC)cc1Oc1ncc(Cl)cc1Cl)CC` [Example 188, (2E)-2-[2-[(3,5-dichloropyridin-2-yl)oxy]-4-(2-methoxyethoxy)benzylidene]-N-(pentylsulfonyl)butanamide] the figure was 118 to 118.4 °C; with `CCCCCC(=O)NS(=O)(=O)/C=C/c1cc(OCCCC)nn1Cc1ccc(Cl)cc1Cl` [Example 131, N-({(E)-2-[3-butoxy-1-(2,4-dichlorobenzyl)-1H-pyrazol-5-yl]vinyl}sulfonyl)hexanamide], 117 to 119 °C; with `CC(C)CCS(=O)(=O)NC(=O)CCc1cc(C2CC2)nn1Cc1ccc(C(F)(F)F)cc1Cl` [Example 157, 3-{1-[2-chloro-4-(trifluoromethyl)benzyl]-3-cyclopropyl-1H-pyrazol-5-yl}-N-[(3-methylbutyl)sulfonyl]propanamide], 160.5 to 162.5 °C. On to `COCCCS(=O)(=O)NC(=O)/C=C/c1ccc(OC(C)C)cc1Oc1ncc(C(F)(F)F)cc1Cl` [Example 57, (2E)-3-[2-{[3-chloro-5-(trifluoromethyl)pyridin-2-yl]oxy}-4-isopropoxyphenyl]-N-[(3-methoxypropyl)sulfonyl]acrylamide], for which the melting point was 129.5 to 130 °C.

Take `COCCOc1ccc(/C=C/COC(=O)NS(=O)(=O)NCCN2CCCC2)c(Oc2ncc(C(F)(F)F)cc2Cl)c1` [Example 434, (2E)-3-[2-{[3-chloro-5-(trifluoromethyl)pyridin-2-yl]oxy}-4-(2-methoxyethoxy)phenyl]prop-2-en-1-yl {[(2-pyrrolidin-1-ylethyl)amino]sulfonyl}carbamate]: the melting point fell in the range of 154 to 156 °C. For `CCCCCS(=O)(=O)NC(=O)/C=C/c1c(C)cc(C)n1Cc1ccc(Cl)cc1Cl` [Example 458, (2E)-3-[1-{2,4-dichlorobenzyl)-3,5-dimethyl-1H-pyrrol-2-yl]-N-(pentylsulfonyl)acrylamide], the melting point was 170 to 171 °C. With `CCCCCS(=O)(=O)NC(=O)CCCc1cc(OCCCC)nn1Cc1ccc(Cl)cc1Cl` [Example 146, 4-[3-butoxy-1-(2,4-dichlorobenzyl)-1H-pyrazol-5-yl]-N-(pentylsulfonyl)butanamide] the figure was 121 to 122 °C; with `CCCCOc1cc(CCS(=O)(=O)NC(=O)OCC(C)(C)C)n(Cc2ccc(Cl)cc2Cl)n1` [Example 140, 2,2-dimethylpropyl ({2-[3-butoxy-1-(2,4-dichlorobenzyl)-1H-pyrazol-5-yl]ethyl}sulfonyl)carbamate], 116 to 118 °C; with `COCCOc1ccc(CCCOC(=O)NS(=O)(=O)NCCC(C)C)c(Oc2ncc(C(F)(F)F)cc2Cl)c1` [Example 203, 3-[2-{[3-chloro-5-(trifluoromethyl)pyridin-2-yl]oxy}-4-(2-methoxyethoxy)phenyl]propyl {[(3-methylbutyl)amino]sulfonyl}carbamate], 123 to 123.5 °C. With `COCCOc1ccc(CCCOC(=O)N2CCOCC2)c(Oc2ncc(C(F)(F)F)cc2Cl)c1` [Example 48, 3-[2-{[3-chloro-5-(trifluoromethyl)pyridin-2-yl]oxy}-4-(2-methoxyethoxy)phenyl]propyl morpholine-4-carboxylate] the figure was 82.3 to 82.4 °C; with `CCCCCS(=O)(=O)NC(=O)/C=C/c1ccc(OCCOC)cc1Oc1ncc(NC(C)=O)cc1C` [Example 463, (2E)-3-[2-{[5-(acetylamino)-3-methylpyridin-2-yl]oxy}-4-(2-methoxyethoxy)phenyl]-N-(pentylsulfonyl)acrylamide], 187.9 to 188.2 °C; with `CCCCCS(=O)(=O)NC/C=C/c1ccc(OCCOC)cc1Oc1ncc(C(F)(F)F)cc1Cl` [Example 27, N-{(2E)-3-[2-{[3-chloro-5-(trifluoromethyl)pyridin-2-yl]oxy}-4-(2-methoxyethoxy)phenyl]-2-propen-1-yl}pentane-1-sulfonamide], 106 to 106.5 °C. With `COCCOc1ccc(CCC(=O)NS(=O)(=O)c2ccc(OC)cc2)c(Oc2ncc(C(F)(F)F)cc2Cl)c1` [Example 7, 3-[2-{[3-chloro-5-(trifluoromethyl)pyridin-2-yl]oxy}-4-(2-methoxyethoxy)phenyl]-N-[(4-methoxyphenyl)sulfonyl]propanamide] the figure was 118 to 120 °C; with `CCCCCS(=O)(=O)NC(=O)OCc1cc(OC(C)C)nn1Cc1ccc(Cl)cc1Cl` [Example 142, [1-(2,4-dichlorobenzyl)-3-isopropoxy-1H-pyrazol-5-yl]methyl (pentylsulfonyl)carbamate], 126 to 128 °C; with `CCCCCS(=O)(=O)NC(=O)/C=C/c1ccc(OCC(COC(C)C)OC(C)=O)cc1Oc1ncc(C(F)(F)F)cc1Cl` (stereo not drawn) [Example 455, 2-(3-{[3-chloro-5-(trifluoromethyl)pyridin-2-yl]oxy}-4-{(1E)-3-oxo-3-[(pentylsulfonyl)amino]prop-1-en-1-yl}phenoxy)-1-(isopropoxymethyl)ethyl acetate], 101 to 103 °C. `CC(C)OCCNS(=O)(=O)NC(=O)OCCCc1ccc(OCc2ccco2)cc1Oc1ncc(C(F)(F)F)cc1Cl` [Example 476, 3-[2-{[3-chloro-5-(trifluoromethyl)pyridin-2-yl]oxy}-4-(2-furylmethoxy)phenyl]propyl {[(2-isopropoxyethyl)amino]sulfonyl}carbamate] returned a melting point of 118 to 119.8 °C. In turn, `C/C(=C\c1ccc(OC(C)C)cc1Oc1ncc(C(F)(F)F)cc1Cl)C(=O)NS(=O)(=O)NCC1CCCO1` (stereo not drawn) [Example 231, (2E)-3-(2-{[3-chloro-5-(trifluoromethyl)pyridin-2-yl]oxy}-4-isopropoxyphenyl)-2-methyl-N-{[(tetrahydrofuran-2-ylmethyl)amino]sulfonyl}acrylamide] returned a melting point of 125.3 to 126.5 °C. With `CCCCNS(=O)(=O)NC(=O)OCc1ccc(OCCOC)cc1Oc1ncc(C(F)(F)F)cc1Cl` [Example 66, 2-{[3-chloro-5-(trifluoromethyl)pyridin-2-yl]oxy}-4-(2-methoxyethoxy)benzyl [(butylamino)sulfonyl]carbamate] the figure was 164 to 165 °C; with `COCCOc1ccc(CCCNS(=O)(=O)c2ccccc2)c(Oc2ncc(C(F)(F)F)cc2Cl)c1` [Example 16, N-{3-[2-{[3-chloro-5-(trifluoromethyl)pyridin-2-yl]oxy}-4-(2-methoxyethoxy)phenyl]propyl}benzenesulfonamide], 94 to 95 °C.

For the molecule `CCCCOc1cc(CCS(=O)(=O)NC(=O)OCc2ccccc2)n(Cc2ccc(Cl)cc2Cl)n1` [Example 136, benzyl ({2-[3-butoxy-1-(2,4-dichlorobenzyl)-1H-pyrazol-5-yl]ethyl}sulfonyl)carbamate], the melting point lay within 99 to 101 °C. With `COCCOc1ccc(/C=C/C(=O)NS(=O)(=O)c2cccnc2)c(Oc2ncc(C(F)(F)F)cc2Cl)c1` [Example 240, (2E)-3-[2-{[3-chloro-5-(trifluoromethyl)pyridin-2-yl]oxy}-4-(2-methoxyethoxy)phenyl]-N-(pyridin-3-ylsulfonyl)acrylamide] the figure was 165 to 167 °C; with `COCCOc1ccc(COC(=O)NS(=O)(=O)NCC(C)C)c(Oc2ncc(C(F)(F)F)cc2Cl)c1` [Example 60, 2-{[3-chloro-5-(trifluoromethyl)pyridin-2-yl]oxy}-4-(2-methoxyethoxy)benzyl [(isobutylamino)sulfonyl]carbamate], 160 to 161 °C; with `CCCCCS(=O)(=O)NC(=O)/C=C/c1ccc(OCCOC)cc1NC(=O)c1ccc(F)cc1F` [Example 191, 2,4-difluoro-N-(5-(2-methoxyethoxy)-2-{(1E)-3-oxo-3-[(pentylsulfonyl)-amino]prop-1-en-1-yl}phenyl)benzamide], 140 to 140.8 °C. With `CCCCCOC(=O)NS(=O)(=O)CCc1cc(OCCCC)nn1Cc1ccc(Cl)cc1Cl` [Example 135, pentyl ({2-[3-butoxy-1-(2,4-dichlorobenzyl)-1H-pyrazol-5-yl]ethyl}sulfonyl)carbamate] the figure was 91 to 93 °C. With `C/C(=C\c1ccc(OC(C)C)cc1Oc1ncc(C(F)(F)F)cc1Cl)C(=O)NS(=O)(=O)NCc1cnc(C)cn1` [Example 470, (2E)-3-(2-{[3-chloro-5-(trifluoromethyl)pyridin-2-yl]oxy}-4-isopropoxyphenyl)-2-methyl-N-({[(5-methylpyrazin-2-yl)methyl]amino}sulfonyl)acrylamide] the figure was 126 to 128 °C.

The values are drawn from patent US20100041892A1, “Therapeutic agent for diabetes” (priority 2005, published 2010).
